Where two headings read alike, the source gives them in different places.
Assays:
[1] = test system: Key Broadleaf Weed and Crop Species; assay: Post-Emergent Test II (Table 5); type: in vivo; conditions: post-emergence, 336 h; for pest or weed control at 70 g/ha: application rate 70 (kg ai/ha; footnote: g ai/ha); for pest or weed control at 140 g/ha: application rate 140 (kg ai/ha; footnote: g ai/ha)
Procedure, shortened: (§1)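 Visual injury ratings (0 = no injury, 100 = complete kill) were taken 14 days after treatment relative to untreated plants. Seedlings at the first or second true leaf stage received an overhead spray at 187 L/ha, and solvent-blank sprayed plants served as controls.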

[2] = test system: Key Grass and Sedge Weeds as well as Grass Crops; assay: Post-Emergent Test II (Table 6); type: in vivo; conditions: post-emergence, 336 h, 14 days after application; for pest or weed control at 70 g/ha: 70 g ai/ha; for pest or weed control at 140 g/ha: 140 g ai/ha
Procedure, shortened: as §1

[3] = Abutilon theophrasti, ABUTH: velvetleaf (Abutilon theophrasti), read-out: Visual Growth Reduction (%) 14 Days After Application ABUTH
[4] = Amaranthus retroflexus, AMARE: redroot pigweed (Amaranthus retroflexus), read-out: Visual Growth Reduction (%) 14 Days After Application AMARE
[5] = Brassica napus, BRSSS: oilseed rape, canola (Brassica napus), read-out: Visual Growth Reduction (%) 14 Days After Application BRSSS
[6] = Chenopodium album, CHEAL: lambsquarters (Chenopodium album), read-out: Visual Growth Reduction (%) 14 Days After Application CHEAL
[7] = Euphorbia heterophylla, EPHHL: wild poinsettia (Euphorbia heterophylla), read-out: Visual Growth Reduction (%) 14 Days After Application EPHHL
[8] = Helianthus annuus, HELAN: sunflower (Helianthus annuus), read-out: Visual Growth Reduction (%) 14 Days After Application HELAN
[9] = Viola tricolor, VIOTR: wild pansy (Viola tricolor), read-out: Visual Growth Reduction (%) 14 Days After Application VIOTR
[10] = CYPSS, read-out: Visual Growth Reduction (%) 14 Days After Application CYPSS
[11] = DIGSA: crabgrass (Digitaria sanguinalis), read-out: Visual Growth Reduction (%) 14 Days After Application DIGSA
[12] = ECHSS, read-out: Visual Growth Reduction (%) 14 Days After Application ECHSS
[13] = ORYSS (crop), read-out: Visual Growth Reduction (%) 14 Days After Application ORYSS
[14] = SETFA: giant foxtail (Setaria faberi), read-out: Visual Growth Reduction (%) 14 Days After Application SETFA
[15] = SORVU: grain sorghum (Sorghum vulgare), read-out: Visual Growth Reduction (%) 14 Days After Application SORVU
[16] = TRZSS (crop), read-out: Visual Growth Reduction (%) 14 Days After Application TRZSS
[17] = ZEAMX: maize, corn (Zea mays), read-out: Visual Growth Reduction (%) 14 Days After Application ZEAMX

melting point | Structure (SMILES) | pest or weed control at 70 g/ha [1, 3] | pest or weed control at 140 g/ha [1, 3] | pest or weed control at 70 g/ha [1, 4] | pest or weed control at 140 g/ha [1, 4] | pest or weed control at 70 g/ha [1, 5] | pest or weed control at 140 g/ha [1, 5] | pest or weed control at 70 g/ha [1, 6] | pest or weed control at 140 g/ha [1, 6] | pest or weed control at 70 g/ha [1, 7] | pest or weed control at 140 g/ha [1, 7] | pest or weed control at 70 g/ha [1, 8] | pest or weed control at 140 g/ha [1, 8] | pest or weed control at 70 g/ha [1, 9] | pest or weed control at 140 g/ha [1, 9] | pest or weed control at 70 g/ha [2, 10] | pest or weed control at 140 g/ha [2, 10] | pest or weed control at 70 g/ha [2, 11] | pest or weed control at 140 g/ha [2, 11] | pest or weed control at 70 g/ha [2, 12] | further results
128 °C | COC(=O)c1nc(-c2ccc(C(F)(F)F)nc2F)c(F)c(N)c1Cl [Compound 24] | 75 to 84% | 75 to 84% | 75 to 84% | 95 to 100% | 60 to 74% | 75 to 84% | 95 to 100% | 95 to 100% | 85 to 94% | 85 to 94% | 95 to 100% | 95 to 100% | 0 to 29% | 0 to 29% | 45 to 59% | 95 to 100% | 0 to 29% | 75 to 84% | 45 to 59% | pest or weed control at 140 g/ha [2, 12]: 60 to 74%; pest or weed control at 70 g/ha [2, 13]: 0 to 29%; pest or weed control at 140 g/ha [2, 13]: 0 to 29%; pest or weed control at 70 g/ha [2, 14]: 75 to 84%; pest or weed control at 140 g/ha [2, 14]: 75 to 84%; pest or weed control at 70 g/ha [2, 15]: 30 to 44%; pest or weed control at 140 g/ha [2, 15]: 45 to 59%; pest or weed control at 70 g/ha [2, 16]: 0 to 29%; pest or weed control at 140 g/ha [2, 16]: 0 to 29%; pest or weed control at 70 g/ha [2, 17]: 0 to 29%; pest or weed control at 140 g/ha [2, 17]: 95 to 100%
167 to 169 °C | Nc1c(F)c(-c2ccc(C(F)F)nc2)nc(C(=O)O)c1Cl [Compound 27, 4-amino-5-chloro-6′-(difluoromethyl)-3-fluoro-[2,3′-bipyridine]-6-carboxylic acid] | 85 to 94% | 95 to 100% | 95 to 100% | 95 to 100% | 85 to 94% | 85 to 94% | 95 to 100% | 95 to 100% | 95 to 100% | 95 to 100% | 95 to 100% | 95 to 100% | 60 to 74% | 60 to 74% | 95 to 100% | 95 to 100% | 75 to 84% | 85 to 94% | 85 to 94% | pest or weed control at 140 g/ha [2, 12]: 85 to 94%; pest or weed control at 70 g/ha [2, 13]: 0 to 29%; pest or weed control at 140 g/ha [2, 13]: 0 to 29%; pest or weed control at 70 g/ha [2, 14]: 75 to 84%; pest or weed control at 140 g/ha [2, 14]: 85 to 94%; pest or weed control at 70 g/ha [2, 15]: 75 to 84%; pest or weed control at 140 g/ha [2, 15]: 85 to 94%; pest or weed control at 70 g/ha [2, 16]: 45 to 59%; pest or weed control at 140 g/ha [2, 16]: 60 to 74%; pest or weed control at 70 g/ha [2, 17]: 60 to 74%; pest or weed control at 140 g/ha [2, 17]: 75 to 84%
166 to 167 °C | COc1ccc(-c2nc(C(=O)O)c(Cl)c(N)c2F)cn1 [Compound 30] | 95 to 100% | 95 to 100% | 95 to 100% | 95 to 100% | 95 to 100% | 95 to 100% | 95 to 100% | 95 to 100% | 95 to 100% | 95 to 100% | 95 to 100% | 95 to 100% | 0 to 29% | 0 to 29% | 0 to 29% | 0 to 29% | 60 to 74% | 60 to 74% | 95 to 100% | pest or weed control at 140 g/ha [2, 12]: 95 to 100%; pest or weed control at 70 g/ha [2, 13]: 30 to 44%; pest or weed control at 140 g/ha [2, 13]: 45 to 59%; pest or weed control at 70 g/ha [2, 14]: 75 to 84%; pest or weed control at 140 g/ha [2, 14]: 85 to 94%; pest or weed control at 70 g/ha [2, 15]: 45 to 59%; pest or weed control at 140 g/ha [2, 15]: 85 to 94%; pest or weed control at 70 g/ha [2, 16]: 0 to 29%; pest or weed control at 140 g/ha [2, 16]: 0 to 29%; pest or weed control at 70 g/ha [2, 17]: 95 to 100%; pest or weed control at 140 g/ha [2, 17]: 95 to 100%

Structure (SMILES) | melting point | pest or weed control at 70 g/ha [1, 3] | pest or weed control at 140 g/ha [1, 3] | pest or weed control at 70 g/ha [1, 4] | pest or weed control at 140 g/ha [1, 4] | pest or weed control at 70 g/ha [1, 5] | pest or weed control at 140 g/ha [1, 5] | pest or weed control at 70 g/ha [1, 6] | pest or weed control at 140 g/ha [1, 6] | pest or weed control at 70 g/ha [1, 7] | pest or weed control at 140 g/ha [1, 7] | pest or weed control at 70 g/ha [1, 8] | pest or weed control at 140 g/ha [1, 8] | pest or weed control at 70 g/ha [1, 9] | pest or weed control at 140 g/ha [1, 9] | pest or weed control at 70 g/ha [2, 10] | pest or weed control at 140 g/ha [2, 10] | pest or weed control at 70 g/ha [2, 11] | pest or weed control at 140 g/ha [2, 11] | pest or weed control at 70 g/ha [2, 12] | further results
Cc1c(-c2cc(N)c(Cl)c(C(=O)O)n2)ccc(Cl)c1Cl [Compound 28] | 174 to 175 °C | 95 to 100% | 95 to 100% | 95 to 100% | 95 to 100% | 60 to 74% | 75 to 84% | 95 to 100% | 95 to 100% | 0 to 29% | 0 to 29% | 85 to 94% | 85 to 94% | 0 to 29% | 0 to 29% | 0 to 29% | 0 to 29% | 0 to 29% | 0 to 29% | 0 to 29% | pest or weed control at 140 g/ha [2, 12]: 0 to 29%; pest or weed control at 70 g/ha [2, 13]: 0 to 29%; pest or weed control at 140 g/ha [2, 13]: 0 to 29%; pest or weed control at 70 g/ha [2, 14]: 0 to 29%; pest or weed control at 140 g/ha [2, 14]: 0 to 29%; pest or weed control at 70 g/ha [2, 15]: 0 to 29%; pest or weed control at 140 g/ha [2, 15]: 0 to 29%; pest or weed control at 70 g/ha [2, 16]: 0 to 29%; pest or weed control at 140 g/ha [2, 16]: 0 to 29%; pest or weed control at 70 g/ha [2, 17]: 30 to 44%; pest or weed control at 140 g/ha [2, 17]: 60 to 74%

From patent publication US10765114B2, “4-amino-6-(pyridyl and 2-substitutedphenyl)-picolinates and 6-amino-2-(pyridyl and 2-substitutedphenyl)-pyrimidine-4-carboxylates and their use as herbicides” (Dow AgroSciences LLC, priority 2013, dated 2020)
